Results reported in PubChem BioAssay (NCI).
“And” between values parts separate entries of the source, which are not always exact repeats. Equal entries are not always repeated.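 Dose response: 5 concentrations. Exposure: 48 h. Format: 96-well plates. Endpoint: linear interpolation; highest concentration if not reached. GI50: concentration for 50% inhibition of growth. Definition used: TGI = concentration required for complete inhibition of growth.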

Legend:
Test in all cases: NCI-60 cell line screen, 48 h
KM12 colon = system: KM12 colon
UO-31 renal = system: UO-31 renal
COLO 205 colon = system: COLO 205 colon
SNB-19 CNS = system: SNB-19 CNS
SNB-75 CNS = system: SNB-75 CNS
NCI-H23 lung = system: NCI-H23 lung
HT29 colon = system: HT29 colon
LOX IMVI melanoma = system: LOX IMVI melanoma
BT-549 breast = system: BT-549 breast
SR leukemia = system: SR leukemia

| SMILES | GI50 (KM12 colon) | TGI (KM12 colon) | GI50 (UO-31 renal) | TGI (UO-31 renal) | GI50 (COLO 205 colon) | TGI (COLO 205 colon) | GI50 (SNB-19 CNS) | TGI (SNB-19 CNS) | GI50 (SNB-75 CNS) | TGI (SNB-75 CNS) | GI50 (NCI-H23 lung) | TGI (NCI-H23 lung) | GI50 (HT29 colon) | TGI (HT29 colon) | GI50 (LOX IMVI melanoma) | TGI (LOX IMVI melanoma) | GI50 (BT-549 breast) | TGI (BT-549 breast) | TGI (SR leukemia) | GI50 (SR leukemia) |
| --- | --- | --- | --- | --- | --- | --- | --- | --- | --- | --- | --- | --- | --- | --- | --- | --- | --- | --- | --- | --- |
| COc1ccc(/C(COc2c(-c3ccccc3)oc3ccccc3c2=O)=N\O)cc1 | 9.46 µM | 23.4 µM | 41.4 µM | > 50 µM | 12 µM | 30.9 µM | 17.5 µM | > 50 µM | 22.2 µM | > 50 µM | 24.2 µM | > 50 µM | 20.7 µM | > 50 µM | 12.4 µM | 26.5 µM | 12.3 µM | 25.6 µM |  |  |
| CCc1ccc(/C=C\c2cc(OC)c(OC)c(OC)c2)cc1 |  |  | 0.0512 µM | 81.3 µM | 0.0212 µM | 0.134 µM and 0.0499 µM | 0.0176 µM |  | 0.0261 µM | > 100 µM | 0.039 µM | 0.338 µM and 0.114 µM |  | 0.527 µM and 0.121 µM |  | 0.581 µM |  |  | 0.336 µM |  |
| O=C(O)CNS(=O)(=O)c1ccc(NCc2ccccc2)cc1 |  |  |  | > 100 µM |  | > 100 µM |  | > 100 µM |  | > 100 µM |  | > 100 µM |  | > 100 µM |  | > 100 µM |  |  |  |  |
| CC(C)c1nc(CN(C)C(=O)N[C@H](C(=O)N[C@@H](Cc2ccccc2)C[C@H](O)[C@H](Cc2ccccc2)NC(=O)OCc2cncs2)C(C)C)cs1 | 23.1 µM | 56.7 µM | 24.5 µM | > 83.8 µM | 17.6 µM | 38.2 µM | 26.4 µM | > 89 µM | 20.4 µM | 54.3 µM | 42.6 µM | > 100 µM | 19.3 µM | 50.6 µM | 18.9 µM | 40.1 µM | 8.71 µM | > 76.5 µM |  |  |
| O=C(c1ccccc1)c1nnc(C(=O)c2ccccc2)nn1 |  | > 344 µM |  | > 344 µM |  | > 344 µM |  | > 344 µM |  | > 344 µM |  | > 344 µM |  | > 344 µM |  | > 344 µM |  |  | 128 µM |  |
| CC(=O)CNC(=O)OC(C)(C)C |  | > 100 µM |  | > 100 µM |  |  |  | > 100 µM |  | > 100 µM |  | > 100 µM |  | > 100 µM |  |  |  |  | > 100 µM |  |
| Brc1cccc(C=NC23CC4CC(CC(C4)C2)C3)c1 |  | > 100 µM |  | > 100 µM |  | > 100 µM |  | > 100 µM |  | > 100 µM |  | > 100 µM |  | > 100 µM |  | > 100 µM |  |  |  |  |
| O=C1NC2OC(CO)C(O)C(O1)C2O (stereo not drawn) |  | > 100 µM |  | > 100 µM |  | > 100 µM |  | > 100 µM |  | > 100 µM |  | > 100 µM |  | > 100 µM |  | > 100 µM |  |  | > 100 µM |  |
| CCC(C)c1c(Cl)nc(Cl)nc1Cl (stereo not drawn) |  | 10.6 µM |  | 33.4 µM |  |  |  | 30.7 µM |  | 26.8 µM |  | 15.5 µM |  | 24.1 µM |  | > 100 µM |  | 4.65 µM |  |  |
| Cn1c2ccccc2c2c(-c3ccccc3)[n+]3ccncc3nc21 | 74.9 µM | > 100 µM | > 100 µM | > 100 µM | 29.5 µM | > 100 µM | 51.8 µM | > 100 µM | > 100 µM | > 100 µM | > 100 µM | > 100 µM | > 100 µM | > 100 µM | > 100 µM | > 100 µM | 29.6 µM | > 100 µM |  |  |
| [Cl-].[Dy+3].[O-]/N=C(\c1ccccc1)c1ccccn1.[O-]/N=C(\c1ccccc1)c1ccccn1.[O-]/N=C(\c1ccccc1)c1ccccn1 | 55.3 µM | > 100 µM | 25.3 µM | 65.3 µM | 33.5 µM | > 100 µM | 38 µM | > 100 µM | 3.54 µM | 22.1 µM | 37.2 µM | > 100 µM | 45.9 µM | > 100 µM | 21.9 µM | 54.1 µM |  |  |  |  |
| COc1ccc(C2=CC3CCC2C3)cc1 (stereo not drawn) |  | > 100 µM |  | > 100 µM |  | > 100 µM |  | > 100 µM |  | > 100 µM |  | > 100 µM |  | > 100 µM |  | > 100 µM |  |  | > 100 µM |  |
| O=c1c2cc([N+](=O)[O-])ccc2sc2ccsc12 |  | > 100 µM |  | > 100 µM |  | > 100 µM |  | > 100 µM |  | > 100 µM |  | > 100 µM |  | > 100 µM |  | > 100 µM |  |  |  |  |
| COc1ccc(NC2=CC(=O)C(=O)c3ccccc32)nn1 |  | 1.62 µM |  | 11.8 µM |  | 3.21 µM |  | 18.1 µM |  |  |  | 6.2 µM |  | 3.54 µM |  | 4.14 µM |  | 2.05 µM |  |  |
| OCC(O)CC[CH2][Sn]([Br])([c]1ccccc1)[c]1ccccc1 (stereo not drawn) | > 100 µM | > 100 µM | > 100 µM | > 100 µM | > 100 µM | > 100 µM | > 100 µM | > 100 µM | > 100 µM | > 100 µM | > 100 µM | > 100 µM | > 100 µM | > 100 µM | > 100 µM | > 100 µM |  |  | > 100 µM | > 100 µM |
| COC(=O)/C=C/c1cc(OC)c(OC)c(OC)c1 |  | > 100 µM |  | > 100 µM |  | > 100 µM |  | > 100 µM |  | > 100 µM |  | > 100 µM |  | > 100 µM |  | > 100 µM |  |  | > 100 µM |  |
| Nc1cc(N)c2nc(-c3ccccc3)c(Nc3ccc(Cl)c(Cl)c3)nc2c1 | 5.89 µM | 24.6 µM | 11.1 µM | 36.3 µM | 11.7 µM | 31.3 µM | 12.9 µM | 30.2 µM |  |  | 19.1 µM | 55.2 µM |  |  | 4.38 µM | > 100 µM |  |  | 15.5 µM | 2.56 µM |
| O=C1/C(=C/c2ccccc2)CNC/C1=C\c1ccccc1 |  | 2.66 µM |  | 3.87 µM |  | 3.11 µM |  | 11.9 µM |  | 11.6 µM |  | 4.27 µM |  | 3.13 µM |  | 2.05 µM |  |  | 0.536 µM |  |
| N#Cc1cc([N+](=O)[O-])ccc1NC(=O)C(=O)Nc1n[nH]c(N)n1 |  | > 100 µM |  | > 100 µM |  | > 100 µM |  | > 100 µM |  | > 100 µM |  | > 100 µM |  | > 100 µM |  | > 100 µM |  |  |  |  |
